The record followed here is patent publication US20250382332A1, “NOVEL ALPHA-FACTOR BASED PEPTIDES WITH ANTIFUNGAL ACTIVITY” (INVAIO SCIENCES, INC., priority 2024, published 2025).

In this assay the test system is Botrytis cinerea (B05.10). Nature of the assay: Resazurin antifungal assay of 180 alpha-factor peptide variants towards Botrytis (Example 2). It counts as cell-based. As to conditions: for Inhibition at 10 μM: peptide 10 μM; for Inhibition at 20 μM: peptide 20 μM; for Inhibition at 50 μM: peptide 50 μM; for Inhibition at 100 μM: peptide 100 μM. Also noted: key to active against Botrytis at 15 μM / active against Botrytis at 10 μM: Peptides that showed greater than 90% inhibition were considered active against Botrytis. In a few lines: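 Resazurin viability read-out (570/620 nm fluorescence) after a 24 h, 20° C incubation of B05.10 conidia, 5000 per well, with peptide at final 10-100 μM. Growth inhibition (%) was derived by subtracting conidia-only fluorescence; four replicates per treatment.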

Setting [1] is: % inhibition of fungal growth, Botrytis conidia, resazurin.

Peptide text beside a SMILES is read from it.

Broadly, the Inhibition is the share of the control response that was lost under treatment. With `CSCC[C@H](NC(=O)[C@@H]1CCCN1C(=O)[C@H](CCC(N)=O)NC(=O)CNC(=O)[C@@H]1CCCN1C(=O)[C@H](CCCCN)NC(=O)[C@H](CC(C)C)NC(=O)[C@H](C)NC(=O)[C@H](CC(C)C)NC(=O)[C@H](Cc1ccc(O)cc1)NC(=O)[C@H](Cc1c[nH]cn1)NC(=O)[C@@H](N)CCCCN)C(=O)N[C@@H](Cc1ccc(O)cc1)C(=O)O` [compound 103] (H-KHYLALKPGQPMY-OH; N-terminus and C-terminus assumed), under setting [1], the “Inhibition at 10 μM” value is reported as below 90%, the “Inhibition at 20 μM” value is below 90%, the “Inhibition at 50 μM” value is given as below 90% and the “Inhibition at 100 μM” value was 98.77%.
Consider `CSCC[C@H](NC(=O)[C@@H]1CCCN1C(=O)[C@H](CCC(=O)O)NC(=O)CNC(=O)[C@@H]1CCCN1C(=O)[C@H](CCCCN)NC(=O)[C@H](CC(C)C)NC(=O)[C@H](CC(N)=O)NC(=O)[C@H](CC(C)C)NC(=O)[C@H](Cc1c[nH]c2ccccc12)NC(=O)[C@H](CCCCN)NC(=O)[C@@H]1CCCN1)C(=O)N[C@@H](Cc1ccc(O)cc1)C(=O)O` [compound 148] (H-PKWLNLKPGEPMY-OH; N-terminus and C-terminus assumed), for which, under setting [1], the “Inhibition at 50 μM” value is on record as below 90% and the “Inhibition at 100 μM” value is below 90%.
In the case of `CSCC[C@H](NC(=O)[C@@H]1CCCN1C(=O)[C@H](CCC(N)=O)NC(=O)CNC(=O)[C@@H]1CCCN1C(=O)[C@H](CCCCN)NC(=O)[C@H](Cc1ccccc1)NC(=O)[C@H](CCCNC(=N)N)NC(=O)[C@H](CC(C)C)NC(=O)[C@H](Cc1c[nH]c2ccccc12)NC(=O)[C@H](Cc1c[nH]cn1)NC(=O)[C@@H](N)CCCCN)C(=O)N[C@@H](Cc1ccc(O)cc1)C(=O)O` [compound 9] (H-KHWLRFKPGQPMY-OH; N-terminus and C-terminus assumed), under setting [1], the “Inhibition at 10 μM” value is given as below 90%, the “Inhibition at 20 μM” value stood at 100%, the “Inhibition at 50 μM” value turned out to be 100% and the “Inhibition at 100 μM” value came to 100%. For the same molecule, the “Inhibition at 15 μM” value (% inhibition of fungal growth, Botrytis conidia, peptide 15 μM, resazurin) was 100%. Further, for the setting “peptide 15 μM”, the “active against Botrytis at 15 μM” value is recorded as “active”.
Regarding `CSCC[C@H](NC(=O)[C@H](CCCCN)NC(=O)[C@H](Cc1ccccc1)NC(=O)[C@H](CCC(N)=O)NC(=O)[C@@H](NC(=O)[C@H](CC(C)C)NC(=O)[C@H](Cc1c[nH]cn1)NC(=O)[C@@H](N)CCCCN)C(C)C)C(=O)NCC(=O)N[C@@H](CCC(N)=O)C(=O)N1CCC[C@H]1C(=O)N[C@@H](CCSC)C(=O)N[C@@H](Cc1ccc(O)cc1)C(=O)O` [compound 22] (H-KHLVQFKMGQPMY-OH; N-terminus and C-terminus assumed), under setting [1], the “Inhibition at 10 μM” value is given as below 90%, the “Inhibition at 20 μM” value is on record as below 90%, the “Inhibition at 50 μM” value came out at 100% and the “Inhibition at 100 μM” value is listed as 100%.
Turning to `CSCC[C@H](NC(=O)[C@H](Cc1c[nH]cn1)NC(=O)[C@@H](N)Cc1c[nH]c2ccccc12)C(=O)N[C@@H](CC(C)C)C(=O)N[C@H](C(=O)N[C@@H](Cc1ccccc1)C(=O)N[C@@H](CCCCN)C(=O)N1CCC[C@H]1C(=O)NCC(=O)N[C@@H](CCC(N)=O)C(=O)N1CCC[C@H]1C(=O)N[C@@H](CCSC)C(=O)N[C@@H](Cc1ccc(O)cc1)C(=O)O)[C@@H](C)O` [compound 170] (H-WHMLTFKPGQPMY-OH; N-terminus and C-terminus assumed), under setting [1], the “Inhibition at 50 μM” value was below 90% and the “Inhibition at 100 μM” value was below 90%.
As to `CSCC[C@H](NC(=O)[C@@H]1CCCN1C(=O)[C@H](CCC(N)=O)NC(=O)CNC(=O)[C@@H]1CCCN1C(=O)[C@H](Cc1c[nH]c2ccccc12)NC(=O)[C@H](CC(C)C)NC(=O)[C@H](CCCCN)NC(=O)[C@H](CC(C)C)NC(=O)[C@H](Cc1c[nH]c2ccccc12)NC(=O)[C@H](Cc1c[nH]cn1)NC(=O)[C@@H](N)CCCCN)C(=O)N[C@@H](Cc1ccc(O)cc1)C(=O)O` [compound 14] (H-KHWLKLWPGQPMY-OH; N-terminus and C-terminus assumed), under setting [1], the “Inhibition at 10 μM” value was below 90%, the “Inhibition at 20 μM” value is listed as below 90%, the “Inhibition at 50 μM” value is 100% and the “Inhibition at 100 μM” value is recorded as 100%.
Regarding `CC[C@H](C)[C@H](NC(=O)[C@H](C)NC(=O)[C@H](CC(C)C)NC(=O)[C@H](Cc1c[nH]c2ccccc12)NC(=O)[C@H](Cc1c[nH]cn1)NC(=O)[C@@H](N)Cc1c[nH]c2ccccc12)C(=O)N[C@@H](Cc1ccccc1)C(=O)N[C@@H](CCCNC(=N)N)C(=O)NCC(=O)N[C@@H](CCC(N)=O)C(=O)N1CCC[C@H]1C(=O)N[C@@H](CCSC)C(=O)N[C@@H](Cc1ccc(O)cc1)C(=O)O` [compound 57] (H-WHWLAIFRGQPMY-OH; N-terminus and C-terminus assumed), under setting [1], the “Inhibition at 10 μM” value is 3.45%, the “Inhibition at 20 μM” value is given as below 90%, the “Inhibition at 50 μM” value turned out to be 100% and the “Inhibition at 100 μM” value amounted to 100%.
On to `CSCC[C@H](NC(=O)[C@@H]1CCCN1C(=O)[C@H](CCC(N)=O)NC(=O)CNC(=O)[C@@H]1CCCN1C(=O)[C@H](CCCCN)NC(=O)[C@H](CC(C)C)NC(=O)[C@H](C)NC(=O)[C@H](CC(C)C)NC(=O)[C@H](Cc1ccccc1)NC(=O)[C@H](Cc1c[nH]cn1)NC(=O)[C@@H](N)CCCCN)C(=O)N[C@@H](Cc1ccc(O)cc1)C(=O)O` [compound 28] (H-KHFLALKPGQPMY-OH; N-terminus and C-terminus assumed), for which, under setting [1], the “Inhibition at 50 μM” value was below 90% and the “Inhibition at 100 μM” value is 100%.
For `CSCC[C@H](NC(=O)[C@@H]1CCCN1C(=O)[C@H](CCC(N)=O)NC(=O)CNC(=O)[C@H](CC(N)=O)NC(=O)[C@H](CCCCN)NC(=O)[C@H](CC(C)C)NC(=O)[C@H](CCCCN)NC(=O)[C@H](CC(C)C)NC(=O)[C@H](Cc1c[nH]c2ccccc12)NC(=O)[C@H](CCC(N)=O)NC(=O)[C@@H](N)CCCCN)C(=O)N[C@@H](Cc1ccc(O)cc1)C(=O)O` [compound 91] (H-KQWLKLKNGQPMY-OH; N-terminus and C-terminus assumed), under setting [1], the “Inhibition at 10 μM” value is below 90%, the “Inhibition at 20 μM” value is on record as below 90%, the “Inhibition at 50 μM” value is listed as 98.66% and the “Inhibition at 100 μM” value is recorded as 100%.
Turning to `CSCC[C@H](NC(=O)[C@@H]1CCCN1C(=O)[C@H](CCC(N)=O)NC(=O)CNC(=O)[C@@H]1CCCN1C(=O)[C@H](CCCCN)NC(=O)[C@H](Cc1ccccc1)NC(=O)[C@H](CCC(N)=O)NC(=O)CNC(=O)[C@H](Cc1c[nH]c2ccccc12)NC(=O)[C@H](CO)NC(=O)[C@@H](N)CCCCN)C(=O)N[C@@H](Cc1ccc(O)cc1)C(=O)O` [compound 39] (H-KSWGQFKPGQPMY-OH; N-terminus and C-terminus assumed), under setting [1], the “Inhibition at 50 μM” value is on record as below 90% and the “Inhibition at 100 μM” value is below 90%.
In the case of `CC[C@H](C)[C@H](NC(=O)[C@H](CCCCN)NC(=O)[C@H](CC(C)C)NC(=O)[C@H](Cc1c[nH]c2ccccc12)NC(=O)[C@H](Cc1c[nH]cn1)NC(=O)[C@@H](N)Cc1c[nH]c2ccccc12)C(=O)N[C@@H](Cc1c[nH]c2ccccc12)C(=O)N1CCC[C@H]1C(=O)NCC(=O)N[C@@H](CCC(N)=O)C(=O)N1CCC[C@H]1C(=O)N[C@@H](CCSC)C(=O)N[C@@H](Cc1ccc(O)cc1)C(=O)O` [compound 99] (H-WHWLKIWPGQPMY-OH; N-terminus and C-terminus assumed), under setting [1], the “Inhibition at 10 μM” value is below 90%, the “Inhibition at 20 μM” value is listed as below 90%, the “Inhibition at 50 μM” value was found to be 94.66% and the “Inhibition at 100 μM” value came out at 100%.
On to `CC[C@H](C)[C@H](NC(=O)[C@H](CO)NC(=O)[C@H](CC(C)C)NC(=O)CNC(=O)[C@H](Cc1c[nH]cn1)NC(=O)[C@@H]1CCCN1)C(=O)N[C@@H](Cc1ccc(O)cc1)C(=O)N1CCC[C@H]1C(=O)NCC(=O)N[C@@H](CCC(N)=O)C(=O)N1CCC[C@H]1C(=O)N[C@@H](CCSC)C(=O)N[C@@H](Cc1ccc(O)cc1)C(=O)O` [compound 142] (H-PHGLSIYPGQPMY-OH; N-terminus and C-terminus assumed), for which, under setting [1], the “Inhibition at 50 μM” value is given as below 90% and the “Inhibition at 100 μM” value was below 90%.
As to `CSCC[C@H](NC(=O)[C@@H]1CCCN1C(=O)[C@H](CCC(N)=O)NC(=O)CNC(=O)[C@@H]1CCCN1C(=O)[C@H](CCCCN)NC(=O)[C@H](Cc1ccccc1)NC(=O)[C@H](CCCNC(=N)N)NC(=O)[C@H](CC(C)C)NC(=O)[C@H](Cc1c[nH]c2ccccc12)NC(=O)[C@H](Cc1c[nH]cn1)NC(=O)[C@@H]1CCCN1)C(=O)N[C@@H](Cc1ccc(O)cc1)C(=O)O` [compound 5] (H-PHWLRFKPGQPMY-OH; N-terminus and C-terminus assumed), under setting [1], the “Inhibition at 10 μM” value was below 90%, the “Inhibition at 20 μM” value is on record as below 90%, the “Inhibition at 50 μM” value stood at 100% and the “Inhibition at 100 μM” value was determined as 100%.
On to `CSCC[C@H](NC(=O)[C@@H]1CCCN1C(=O)[C@H](CCC(N)=O)NC(=O)CNC(=O)[C@@H]1CCCN1C(=O)[C@H](Cc1ccccc1)NC(=O)[C@H](CC(C)C)NC(=O)[C@H](CCC(N)=O)NC(=O)[C@@H](NC(=O)[C@H](Cc1c[nH]c2ccccc12)NC(=O)[C@H](Cc1c[nH]cn1)NC(=O)[C@@H](N)CCCCN)C(C)C)C(=O)N[C@@H](Cc1ccc(O)cc1)C(=O)O` [compound 144] (H-KHWVQLFPGQPMY-OH; N-terminus and C-terminus assumed), for which, under setting [1], the “Inhibition at 50 μM” value is listed as below 90% and the “Inhibition at 100 μM” value is 99.99%.
For the molecule `CSCC[C@H](NC(=O)[C@@H]1CCCN1C(=O)[C@H](CCC(N)=O)NC(=O)CNC(=O)[C@H](Cc1ccc(O)cc1)NC(=O)[C@H](CC(N)=O)NC(=O)[C@H](CC(C)C)NC(=O)[C@H](CCCCN)NC(=O)[C@H](CC(C)C)NC(=O)[C@H](Cc1c[nH]c2ccccc12)NC(=O)[C@H](Cc1c[nH]cn1)NC(=O)[C@@H](N)Cc1c[nH]c2ccccc12)C(=O)N[C@@H](Cc1ccc(O)cc1)C(=O)O` [compound 108] (H-WHWLKLNYGQPMY-OH; N-terminus and C-terminus assumed), under setting [1], the “Inhibition at 10 μM” value is listed as below 90%, the “Inhibition at 20 μM” value is reported as below 90%, the “Inhibition at 50 μM” value was below 90% and the “Inhibition at 100 μM” value was found to be 100%.
